# Source: patent EP0908457B1, “3-(1,2-benzisothiazol- and isoxazol-5-Y1)-2,4(1H,3H)-pyrimidinedione or thione and 3-(1,2-benzisothiazol- and isoxazol-5-y1)-4(3H)-pyrimidinone or thione herbicidal agents” (BASF AKTIENGESELLSCHAFT, priority 1997, dated 1999)
# Legend:
# Cyperus iria = experiment: Preemergence weed control under flooded paddy conditions, CYPIR (Rice Flatsedge); format: in vivo; settings: flooded paddy, rated three to four weeks after treatment; for herbicidal effect rating, CYPIR: meaning of each grade not given here
# Sagittaria pygmaea, L. = experiment: Preemergence weed control under flooded paddy conditions, SAGPY (Arrowhead (Pygmaea)); format: in vivo; settings: flooded paddy, rated three to four weeks after treatment; for herbicidal effect rating, SAGPY: meaning of each grade not given here
# [1] = tested on: Monochoria vaginalis, Presl.; experiment: Preemergence weed control under flooded paddy conditions, MOOVA (Monochoria); format: in vivo; settings: flooded paddy, rated three to four weeks after treatment; for herbicidal effect rating, MOOVA: meaning of each grade not given here
# [2] = tested on: Oryza sativa, (L.) Tebonnet; experiment: Rice tolerance to post-transplant applications under flooded paddy conditions (Example 187), ORYSAT (Rice, Tebonnet); settings: rated three to four weeks after treatment
# [3] = tested on: Cyperus serotinus, Rottb.; experiment: Preemergence weed control under flooded paddy conditions, CYPSE (Flatsedge); format: in vivo; settings: rated three to four weeks after treatment; for herbicidal effect rating, CYPSE: meaning of each grade not given here
# [4] = tested on: Echinochloa oryzoides (Ard.) Fritsch.; experiment: Preemergence weed control under flooded paddy conditions, ECHORC (Watergrass (Calif.)); format: in vivo; settings: flooded paddy, rated three to four weeks after treatment; for herbicidal effect rating, ECHORC: meaning of each grade not given here
# [5] = Rate 0.0320 kg/ha, preemergence weeds
# [6] = Rate 0.0620 kg/ha, preemergence weeds
# [7] = Rate 0.1250 kg/ha, preemergence weeds
# [8] = Rate 0.2500 kg/ha, preemergence weeds
# [9] = Rate 0.0320 kg/ha, preemergence
# [10] = Rate 0.0620 kg/ha, preemergence
# [11] = Rate 0.1250 kg/ha, preemergence
# [12] = Rate 0.2500 kg/ha, preemergence
compound,measurement,setting,value
"C#CCOC(=O)COc1cccc(-c2nsc3ccc(-n4c(=O)cc(C(F)(F)F)n(C)c4=O)cc23)c1 [Example 326, Acetic acid, {m-{5-[3,6-dihydro-3-methyl-2,6-dioxo-4-(trifluoromethyl)-1(2H)-pyrimidinyl]-1,2-benzisothiazol-3-yl}phenoxy}-, 2-propynyl ester]","herbicidal effect rating, CYPIR",Cyperus iria; [5],6.0
same,"herbicidal effect rating, CYPIR",Cyperus iria; [6],7.0
same,"herbicidal effect rating, CYPIR",Cyperus iria; [7],7.0
same,"herbicidal effect rating, CYPIR",Cyperus iria; [8],9.0
same,"herbicidal effect rating, SAGPY","Sagittaria pygmaea, L.; [5]",0.0
same,"herbicidal effect rating, SAGPY","Sagittaria pygmaea, L.; [6]",1.0
same,"herbicidal effect rating, SAGPY","Sagittaria pygmaea, L.; [7]",5.5
same,"herbicidal effect rating, SAGPY","Sagittaria pygmaea, L.; [8]",9.0
same,"herbicidal effect rating, MOOVA",[1]; [5],9.0
same,"herbicidal effect rating, MOOVA",[1]; [6],9.0
same,"herbicidal effect rating, MOOVA",[1]; [7],9.0
same,"herbicidal effect rating, MOOVA",[1]; [8],9.0
same,herbicidal effect rating ORYSAT,[2]; Rate 0.0320 kg/ha,5.5
same,herbicidal effect rating ORYSAT,[2]; Rate 0.0620 kg/ha,5.5
same,herbicidal effect rating ORYSAT,[2]; Rate 0.1250 kg/ha,5.5
same,herbicidal effect rating ORYSAT,[2]; Rate 0.2500 kg/ha,5.5
same,"herbicidal effect rating, CYPSE",[3]; [5],4.0
same,"herbicidal effect rating, CYPSE",[3]; [6],4.5
same,"herbicidal effect rating, CYPSE",[3]; [7],4.5
same,"herbicidal effect rating, CYPSE",[3]; [8],7.5
same,"herbicidal effect rating, ECHORC",[4]; [5],5.5
same,"herbicidal effect rating, ECHORC",[4]; [6],8.5
same,"herbicidal effect rating, ECHORC",[4]; [7],9.0
same,"herbicidal effect rating, ECHORC",[4]; [8],9.0
"Cc1ccc(OC(C)(C)C(=O)OC(C)(C)C)c(-c2nsc3ccc(-n4c(=O)cc(C(F)(F)F)n(C)c4=O)cc23)c1 [Example 514, Propionic acid, 2-{{2-{5-[3,6-dihydro-3-methyl-2,6-dioxo-4-(trifluoromethyl)-1(2H)-pyrimidinyl]-1,2-benzisothiazol-3-yl}-p-tolyl}oxy}-2-methyl-, tert-butyl ester]",CYPIR herbicidal rating,"Cyperus iria; 0.0320 kg/ha, preemergence",0.0
same,CYPIR herbicidal rating,"Cyperus iria; 0.0620 kg/ha, preemergence",0.0
same,CYPIR herbicidal rating,"Cyperus iria; 0.1250 kg/ha, preemergence",2.0
same,CYPIR herbicidal rating,"Cyperus iria; 0.2500 kg/ha, preemergence",7.0
same,SAGPY herbicidal rating,"Sagittaria pygmaea, L.; 0.0320 kg/ha, preemergence",0.0
same,SAGPY herbicidal rating,"Sagittaria pygmaea, L.; 0.0620 kg/ha, preemergence",0.0
same,SAGPY herbicidal rating,"Sagittaria pygmaea, L.; 0.1250 kg/ha, preemergence",0.0
same,SAGPY herbicidal rating,"Sagittaria pygmaea, L.; 0.2500 kg/ha, preemergence",0.0
same,MOOVA herbicidal rating,"[1]; 0.0320 kg/ha, preemergence",9.0
same,MOOVA herbicidal rating,"[1]; 0.0620 kg/ha, preemergence",9.0
same,MOOVA herbicidal rating,"[1]; 0.1250 kg/ha, preemergence",9.0
same,MOOVA herbicidal rating,"[1]; 0.2500 kg/ha, preemergence",9.0
same,ORYSAT herbicidal rating (rice tolerance),[2]; 0.0320 kg/ha,2.0
same,ORYSAT herbicidal rating (rice tolerance),[2]; 0.0620 kg/ha,2.0
same,ORYSAT herbicidal rating (rice tolerance),[2]; 0.1250 kg/ha,1.0
same,ORYSAT herbicidal rating (rice tolerance),[2]; 0.2500 kg/ha,4.0
same,CYPSE herbicidal rating,"[3]; 0.0320 kg/ha, preemergence",0.0
same,CYPSE herbicidal rating,"[3]; 0.0620 kg/ha, preemergence",0.0
same,CYPSE herbicidal rating,"[3]; 0.1250 kg/ha, preemergence",0.0
same,CYPSE herbicidal rating,"[3]; 0.2500 kg/ha, preemergence",0.0
same,ECHORC herbicidal rating,"[4]; 0.0320 kg/ha, preemergence",0.0
same,ECHORC herbicidal rating,"[4]; 0.0620 kg/ha, preemergence",1.0
same,ECHORC herbicidal rating,"[4]; 0.1250 kg/ha, preemergence",2.0
same,ECHORC herbicidal rating,"[4]; 0.2500 kg/ha, preemergence",8.0
"C[C@@H](Br)[C@H](Br)c1nsc2ccc(-n3c(=O)cc(C(F)(F)F)n(C)c3=O)cc12 [Example 303, 2,4(1H,3H)-Pyrimidinedione, 3-[3-(1,2-dibromopropyl)-1,2-benzisothiazol-5-yl]-1-methyl-6-(trifluoromethyl)-, (1R,2R)-]","herbicidal effect rating, CYPIR",Cyperus iria; [5],8.0
same,"herbicidal effect rating, CYPIR",Cyperus iria; [6],8.0
same,"herbicidal effect rating, CYPIR",Cyperus iria; [7],8.5
same,"herbicidal effect rating, CYPIR",Cyperus iria; [8],8.5
same,"herbicidal effect rating, SAGPY","Sagittaria pygmaea, L.; [5]",2.0
same,"herbicidal effect rating, SAGPY","Sagittaria pygmaea, L.; [6]",2.0
same,"herbicidal effect rating, SAGPY","Sagittaria pygmaea, L.; [7]",8.5
same,"herbicidal effect rating, SAGPY","Sagittaria pygmaea, L.; [8]",9.0
same,"herbicidal effect rating, MOOVA",[1]; [5],7.0
same,"herbicidal effect rating, MOOVA",[1]; [6],9.0
same,"herbicidal effect rating, MOOVA",[1]; [7],9.0
same,"herbicidal effect rating, MOOVA",[1]; [8],9.0
same,herbicidal effect rating ORYSAT,[2]; Rate 0.0320 kg/ha,2.0
same,herbicidal effect rating ORYSAT,[2]; Rate 0.0620 kg/ha,4.5
same,herbicidal effect rating ORYSAT,[2]; Rate 0.1250 kg/ha,5.0
same,herbicidal effect rating ORYSAT,[2]; Rate 0.2500 kg/ha,7.5
same,"herbicidal effect rating, CYPSE",[3]; [5],0.0
same,"herbicidal effect rating, CYPSE",[3]; [6],4.0
same,"herbicidal effect rating, CYPSE",[3]; [7],5.0
same,"herbicidal effect rating, CYPSE",[3]; [8],6.0
same,"herbicidal effect rating, ECHORC",[4]; [5],2.5
same,"herbicidal effect rating, ECHORC",[4]; [6],7.5
same,"herbicidal effect rating, ECHORC",[4]; [7],9.0
same,"herbicidal effect rating, ECHORC",[4]; [8],9.0
"Cn1c(C(F)(F)F)cc(=O)n(-c2ccc3snc(C(C#N)=Cc4ccc[nH]4)c3c2)c1=O [Example 598, 1,2-Benzisothiazole-3-acetonitrile, 5-[3,6-dihydro-3-methyl-2,6-dioxo-4-(trifluoromethyl)-1(2H)-pyrimidinyl]-alpha-(pyrrol-2-ylmethylene)-]","herbicidal effect rating, CYPIR",Cyperus iria; [9],0.0
same,"herbicidal effect rating, CYPIR",Cyperus iria; [10],0.0
same,"herbicidal effect rating, CYPIR",Cyperus iria; [11],2.0
same,"herbicidal effect rating, CYPIR",Cyperus iria; [12],3.0
same,"herbicidal effect rating, SAGPY","Sagittaria pygmaea, L.; [9]",0.0
same,"herbicidal effect rating, SAGPY","Sagittaria pygmaea, L.; [10]",0.0
same,"herbicidal effect rating, SAGPY","Sagittaria pygmaea, L.; [11]",0.0
same,"herbicidal effect rating, SAGPY","Sagittaria pygmaea, L.; [12]",0.0
same,"herbicidal effect rating, MOOVA",[1]; [11],7.0
same,"herbicidal effect rating, MOOVA",[1]; [12],7.0
same,herbicidal effect rating ORYSAT,[2]; Rate 0.0320 kg/ha,0.0
same,herbicidal effect rating ORYSAT,[2]; Rate 0.0620 kg/ha,0.0
same,herbicidal effect rating ORYSAT,[2]; Rate 0.1250 kg/ha,3.0
same,herbicidal effect rating ORYSAT,[2]; Rate 0.2500 kg/ha,3.0
same,"herbicidal effect rating, CYPSE",[3]; [9],0.0
same,"herbicidal effect rating, CYPSE",[3]; [12],0.0
same,"herbicidal effect rating, ECHORC",[4]; [9],0.0
same,"herbicidal effect rating, ECHORC",[4]; [10],0.0
same,"herbicidal effect rating, ECHORC",[4]; [11],0.0
same,"herbicidal effect rating, ECHORC",[4]; [12],0.0
